Paper PMC10066365, “Nemacol is a small molecule inhibitor of C. elegans vesicular acetylcholine transporter with anthelmintic potential” (Nature Communications, 2023)
Where “and” joins values, the source holds several entries; their conditions need not be identical. Equal entries are not always repeated. Where two headings read alike, the source gives them in different places.

Experiments:
[1] = test system: Pristionchus pacificus; assay: Pristionchus pacificus motor disruption dose-response on solid media, 1 h; settings: for mean % any phene (coiled, jerky-Unc or paralyzed): Pristionchus pacificus young adults, mean of three biological replicates; for EC50: Pristionchus pacificus, 1 h, read-out: P. pacificus motor disruption EC50
Method: Locomotor phenotype analyses were done in 24-well plates with 1 mL of MYOB substrate (27.5 g Trizma HCl, 12 g Trizma Base, 230 g bacto tryptone, 10 g NaCl, 0.4 g cholesterol (95%)) seeded with 25 µL of OP50 Escherichia coli on each well. Each compound was added to the MYOB substrate before pouring to achieve the desired final concentrations of 30 µM or 60 µM after diffusion through the media. Synchronized young adult worms are transferred into each well using a platinum wire pick. A Leica MZ75 stereomicroscope was used to visualize the movement of worms on the solid substrate. The specific dominant locomotor phenotype (i.e. ‘Punc’, ‘paralyzed’, ‘coiler’ or ‘wild-type locomotion’) was scored after the touch on the head with a platinum wire over a ~3–5 s of observation. […] Coiled animals were not scored as paralyzed despite sometimes not responding to light touch.

[2] = test system: Dirofilaria immitis L3/L4; assay: Dirofilaria immitis L3/L4 motility assay (DiroImager, 72 h); settings: Dirofilaria immitis L4
[3] = test system: C. elegans; assay: C. elegans motor phenotype scoring on solid media (Punc/jerky-unc, coiled, paralyzed), wild-type young adults; format: in vivo, Caenorhabditis elegans; settings: for atypical locomotion (number of animals) / coiled (number of animals) / no phene (number of animals) / paralyzed (number of animals): young adults, 20 animals per trial; for EC50: Caenorhabditis elegans, read-out: C. elegans - motor disruption EC50
[4] = test system: Dirofilaria immitis microfilariae; assay: Dirofilaria immitis microfilariae immobility assay (DiroImager, 72 h); settings: Dirofilaria immitis microfilariae
Method: We conducted experiments with the Missouri isolate of Dirofilaria immitis in two labs. In the first set of experiments, shown as part of Fig. 3c, D. immitis microfilariae and larval stage 3 (L3) worms were assayed in the laboratories of Bayer Animal Health GmbH (Monheim, Germany). For microfilariae immobility assays, approximately 250 freshly purified microfilariae were cultured in single wells of a 96-well microtiter plate containing supplemented RPMI 1640 medium[68],[69]. […] Microfilariae exposed to medium substituted with 1% DMSO were used as negative controls. Motility of microfilariae was evaluated after 72 h of drug exposure using an image-based approach—DiroImager, developed by Bayer Technology Services. As described in detail in refs. [68],[69], the DiroImager is an automated high-throughput platform that allows for high-resolution optical imaging of an entire 96-well microtiter plate.

[5] = conc 3.75, observed at one hour
[6] = 3.75uM, one hour, mean of three biological replicates
[7] = 3.75uM, one hour, single replicate counts
[8] = 15uM, one hour, mean of three biological replicates
[9] = 15uM, one hour, single replicate counts
[10] = 60uM, one hour, mean of three biological replicates
[11] = 60uM, one hour, single replicate counts
[12] = 3.75uM, one hour, mean of three biological replicates, third c14 line of each analog
[13] = 15uM, one hour, mean of three biological replicates, second c14 line of each analog
[14] = 60uM, one hour, mean of three biological replicates, first c14 line of each analog
[15] = any motor phenotype after 1 h on solid media, ± 95% CI
[16] = 3.75uM, one hour, single technical replicate
[17] = 15uM, one hour, single technical replicate
[18] = 60uM, one hour, single technical replicate

| SMILES | mean % any phene (coiled, jerky-Unc or paralyzed) [1, 5] | mean % any phene (coiled, jerky-Unc or paralyzed) ([1]; conc 15, observed at one hour) | mean % any phene (coiled, jerky-Unc or paralyzed) ([1]; conc 60, observed at one hour) | EC50 [1] | % effect (motility), DIROIM L4 ([2]; 2 µM) | % effect (motility), DIROIM L4 ([2]; 10 µM) | % effect (motility), DIROIM L4 ([2]; 50 µM) | any phene, mean % fraction of young adults exhibiting any phenotype (coiled, jerky-Unc or paralyzed) [3, 6] | atypical locomotion (number of animals) [3, 7] | coiled (number of animals) [3, 7] | no phene (number of animals) [3, 7] | % effect (motility), DIROIM MF ([4]; 0.016 µM) | % effect (motility), DIROIM MF ([4]; 0.08 µM) | % effect (motility), DIROIM MF ([4]; 0.4 µM) | % effect (motility), DIROIM MF ([4]; 2 µM) | % effect (motility), DIROIM MF ([4]; 10 µM) | any phene (mean % fraction of young adults exhibiting any phenotype: coiled, jerky-Unc or paralyzed) [3, 12] | any phene (mean % fraction of young adults exhibiting any phenotype: coiled, jerky-Unc or paralyzed) [3, 13] | any phene (mean % fraction of young adults exhibiting any phenotype: coiled, jerky-Unc or paralyzed) [3, 14] | EC50 [3, 15] | also measured |
| --- | --- | --- | --- | --- | --- | --- | --- | --- | --- | --- | --- | --- | --- | --- | --- | --- | --- | --- | --- | --- | --- |
| O=[N+]([O-])c1ccc(N2CCN(Cc3ccccc3)CC2)cc1 [Nemacol-6] | 0% | 1.667% | 23.3333% | > 60 µM | 5% | 6% | 20% | 0% | 0 | 0 | 20 | 0% | 0% | 0% | 0% | 0% | – | – | – | – | paralyzed (number of animals) [3, 7]: 0; any phene, mean % fraction of young adults exhibiting any phenotype (coiled, jerky-Unc or paralyzed) [3, 8]: 7.5%; atypical locomotion (number of animals) [3, 9]: 1 and 0 and 2 and 5; coiled (number of animals) [3, 9]: 0; no phene (number of animals) [3, 9]: 19 and 20 and 18 and 15; paralyzed (number of animals) [3, 9]: 0; any phene, mean % fraction of young adults exhibiting any phenotype (coiled, jerky-Unc or paralyzed) [3, 10]: 44.1667%; atypical locomotion (number of animals) [3, 11]: 5 and 3 and 4 and 19 and 13; coiled (number of animals) [3, 11]: 1 and 0 and 3; no phene (number of animals) [3, 11]: 14 and 17 and 12 and 16 and 1 and 7; paralyzed (number of animals) [3, 11]: 0; EC50 ([3]; 1 h): > 60 µM |
| CN1CCN(c2ccc([N+](=O)[O-])cc2)CC1 [Nemacol-7] | 1.667% | 5% | 41.6667% | > 60 µM | 5% | 5% | 10% | 0% | 0 | 0 | 20 | 0% | 0% | 0% | 0% | 0% | – | – | – | – | paralyzed (number of animals) [3, 7]: 0; any phene, mean % fraction of young adults exhibiting any phenotype (coiled, jerky-Unc or paralyzed) [3, 8]: 3.333%; atypical locomotion (number of animals) [3, 9]: 0 and 1 and 2; coiled (number of animals) [3, 9]: 0; no phene (number of animals) [3, 9]: 20 and 19 and 18; paralyzed (number of animals) [3, 9]: 0; any phene, mean % fraction of young adults exhibiting any phenotype (coiled, jerky-Unc or paralyzed) [3, 10]: 14.1667%; atypical locomotion (number of animals) [3, 11]: 1 and 2 and 0 and 4 and 8; coiled (number of animals) [3, 11]: 0; no phene (number of animals) [3, 11]: 19 and 18 and 20 and 16 and 12; paralyzed (number of animals) [3, 11]: 0; EC50 ([3]; 1 h): > 60 µM |
| c1cc(N2CCN(CC3CCCCC3)CC2)ccn1 [Nemacol-22, 1-(cyclohexylmethyl)−4-(pyridin-4-yl)piperazine] | – | – | – | – | 0% | 0% | 10% | – | – | – | – | 0% | 0% | 0% | 0% | 0% | 0% | 10.8333% | 24.1667% | > 60 µM | – |
| N#Cc1ccc(N2CCN(CC3CCCCC3)CC2)cc1 [Nemacol-24, 4-(4-(cyclohexylmethyl)piperazin-1-yl)benzonitrile] | – | – | – | – | – | 25% | 45% | – | – | – | – | 0% | 0% | 0% | 0% | 0% | 8.333% | 45.8333% | 91.6667% | 16.3 ± 10.5 µM | – |
| O=[N+]([O-])c1ccc(N2CCN(CC3CC3)CC2)cc1 [Nemacol-28, 1-(cyclopropylmethyl)−4-(4-nitrophenyl)piperazine] | – | – | – | – | 5% | 5% | 15% | – | – | – | – | 0% | 0% | 0% | 0% | 0% | 0% | 4.167% | 32.5% | > 60 µM | – |
| Clc1ccc(N2CCN(C3CCCCCC3)CC2)cc1 [Nemacol-57] | – | – | – | – | – | 10% | 15% | – | – | – | – | 0% | 0% | 0% | 0% | 0% | – | – | – | 2.3 µM | atypical locomotion (number of animals) [3, 16]: 12 and 13 and 15; coiled (number of animals) [3, 16]: 3 and 1 and 2 and 7; no phene (number of animals) [3, 16]: 0 and 2 and 3; paralyzed (number of animals) [3, 16]: 5 and 4 and 1 and 0; any phene: mean % fraction of young adults exhibiting any phenotype (coiled, jerky-Unc or paralyzed) [3, 6]: 92.5%; atypical locomotion (number of animals) [3, 17]: 0 and 2 and 4 and 6; coiled (number of animals) [3, 17]: 17 and 15 and 14 and 10 and 11; no phene (number of animals) [3, 17]: 0; paralyzed (number of animals) [3, 17]: 3 and 4 and 0 and 6; atypical locomotion (number of animals) [3, 18]: 0 and 2 and 1; coiled (number of animals) [3, 18]: 14 and 13 and 12 and 18 and 11; no phene (number of animals) [3, 18]: 0; paralyzed (number of animals) [3, 18]: 6 and 5 and 7 and 2 and 8 |
